PubChem BioAssay AID248 (DTP/NCI, 2004)
Where “and” joins values, the source holds several entries; their conditions need not be identical. Equal entries are not always repeated. Inconclusive results and toxic doses are left out.

Test system: L1210 leukemia ip in BDF1 mice, survival T/C
Test: NCI In Vivo Anticancer Drug Screen. Data for tumor model L1210 Leukemia (intraperitoneal) in B6D2F1 (BDF1) mice
Details: endpoint: mean survival time, higher = longer survival
In short: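 Ratio derived from survival: compound-dosed mice over vehicle-dosed mice, all bearing a transplantable tumor.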

[1] = dose: 100.0 mg/kg/injection, schedule: Q01DX001 (ip), vehicle: carboxymethylcellulose (CMC)
[2] = dose: 200.0 mg/kg/injection, schedule: Q01DX001 (ip), vehicle: carboxymethylcellulose (CMC)
[3] = dose: 400.0 mg/kg/injection, schedule: Q01DX001 (ip), vehicle: carboxymethylcellulose (CMC)
[4] = dose: 100.0 mg/kg/injection, schedule: Q04DX003 (ip), vehicle: saline with Tween-80
[5] = dose: 200.0 mg/kg/injection, schedule: Q04DX003 (ip), vehicle: saline with Tween-80
[6] = dose: 100.0 mg/kg/injection, schedule: Q01DX009 (ip), vehicle: saline with Tween-80
[7] = dose: 100.0 mg/kg/injection, schedule: Q01DX001 (ip), vehicle: other

With Oc1ccc(I)c2cccnc12 the T/C (dose: 22.5 mg/kg/injection, schedule: Q01DX009 (ip), vehicle: saline) was 165 % of control, the T/C (dose: 45.0 mg/kg/injection, schedule: Q01DX009 (ip), vehicle: saline) was 240 % of control and the T/C (dose: 90.0 mg/kg/injection, schedule: Q01DX009 (ip), vehicle: saline) was 297 % of control. The T/C [1] was 93 % of control, the T/C (dose: 100.0 mg/kg/injection, schedule: Q01DX009 (ip), vehicle: saline) was 169 % of control and the T/C (dose: 180.0 mg/kg/injection, schedule: Q01DX009 (ip), vehicle: saline) was 206 % of control. For the same compound, the T/C [2] was 90 % of control and the T/C [3] was 95 % of control.

For O=C(NC1CCC12CC2)c1ccc2ccccc2c1 (stereo unspecified), the T/C (dose: 37.5 mg/kg/injection, schedule: Q04DX002 (ip), vehicle: saline with Tween-80) was 97 % of control, the T/C (dose: 75.0 mg/kg/injection, schedule: Q04DX002 (ip), vehicle: saline with Tween-80) was 93 % of control and the T/C (dose: 150.0 mg/kg/injection, schedule: Q04DX002 (ip), vehicle: saline with Tween-80) was 93 % of control. For the same compound, the T/C (dose: 300.0 mg/kg/injection, schedule: Q04DX002 (ip), vehicle: saline with Tween-80) was 93 % of control.

With CCCCCCCC(=O)Nc1cc2c3c(c1)CCCN3CCC2 the T/C (dose: 50.0 mg/kg/injection, schedule: Q04DX003 (ip), vehicle: saline with Tween-80) was 103 % of control, the T/C [4] was 97 % of control and the T/C [5] was 103 % of control.

For CC(C)=NNC(=O)C1CC=CC1C(Cl)Cl (stereo unspecified), the T/C (dose: 100.0 mg/kg/injection, schedule: Q01DX009 (ip), vehicle: Klucel (hydroxypropylcellulose) (HPC)) was 96 % of control, the T/C (dose: 200.0 mg/kg/injection, schedule: Q01DX009 (ip), vehicle: Klucel (hydroxypropylcellulose) (HPC)) was 98 % of control and the T/C (dose: 400.0 mg/kg/injection, schedule: Q01DX009 (ip), vehicle: Klucel (hydroxypropylcellulose) (HPC)) was 93 % of control.

For O=c1cc(-c2cccs2)ss1, the T/C [6] was 89 % of control, the T/C [4] was 102 % of control and the T/C (dose: 200.0 mg/kg/injection, schedule: Q01DX009 (ip), vehicle: saline with Tween-80) was 105 % of control. The T/C [5] was 94 % of control, the T/C (dose: 400.0 mg/kg/injection, schedule: Q01DX009 (ip), vehicle: saline with Tween-80) was 86 % of control and the T/C (dose: 400.0 mg/kg/injection, schedule: Q04DX003 (ip), vehicle: saline with Tween-80) was 104 % of control.

C=CCC1(O)C(c2ccccc2)=C(c2ccccc2)C(c2ccccc2)=C1c1ccccc1 was tested, and the T/C (dose: 50.0 mg/kg/injection, schedule: Q01DX001 (ip), vehicle: other) was 98 % of control, the T/C [7] was 96 % of control and the T/C (dose: 200.0 mg/kg/injection, schedule: Q01DX001 (ip), vehicle: other) was 98 % of control. The T/C (dose: 400.0 mg/kg/injection, schedule: Q01DX001 (ip), vehicle: other) was 98 % of control.

CO/N=C1\CC(C)N2C(=O)C(C(C)C)NC(=O)C(NC(=O)c3c4nc5c(C(=O)NC6C(=O)NC(C(C)C)C(=O)N7C(C)CC(O)C7C(=O)N(C)CC(=O)N(C)C(C(C)C)C(=O)OC6C)ccc(C)c5oc-4c(C)c(=O)c3N)C(CO)OC(=O)C(C)N(C)C(=O)CN(C)C(=O)C12 (stereo unspecified) was tested, and the T/C (dose: 0.1 mg/kg/injection, schedule: Q01DX009 (ip), vehicle: saline + alcohol) was 96 % of control, the T/C (dose: 0.2 mg/kg/injection, schedule: Q01DX009 (ip), vehicle: saline + alcohol) was 102 % of control and the T/C (dose: 0.3 mg/kg/injection, schedule: Q04DX003 (ip), vehicle: saline + alcohol) was 96 % of control. The T/C (dose: 0.4 mg/kg/injection, schedule: Q01DX009 (ip), vehicle: saline + alcohol) was 97 % of control, the T/C (dose: 0.6 mg/kg/injection, schedule: Q04DX003 (ip), vehicle: saline + alcohol) was 107 % of control and the T/C (dose: 0.8 mg/kg/injection, schedule: Q01DX001 (ip), vehicle: saline + alcohol) was 97 % of control. The T/C (dose: 0.8 mg/kg/injection, schedule: Q01DX009 (ip), vehicle: saline + alcohol) was 111 % of control, the T/C (dose: 1.2 mg/kg/injection, schedule: Q04DX003 (ip), vehicle: saline + alcohol) was 97 % of control and the T/C (dose: 1.6 mg/kg/injection, schedule: Q01DX001 (ip), vehicle: saline + alcohol) was 103 % of control. The T/C (dose: 1.6 mg/kg/injection, schedule: Q01DX009 (ip), vehicle: saline + alcohol) was 100 % of control, the T/C (dose: 2.4 mg/kg/injection, schedule: Q04DX003 (ip), vehicle: saline + alcohol) was 112 % of control and the T/C (dose: 3.2 mg/kg/injection, schedule: Q01DX001 (ip), vehicle: saline + alcohol) was 110 % of control. The T/C (dose: 4.8 mg/kg/injection, schedule: Q04DX003 (ip), vehicle: saline + alcohol) was 110 % of control, the T/C (dose: 6.4 mg/kg/injection, schedule: Q01DX001 (ip), vehicle: saline + alcohol) was 106 % of control and the T/C (dose: 12.8 mg/kg/injection, schedule: Q01DX001 (ip), vehicle: saline + alcohol) was 101 % of control.

With O=C(/C=C/c1ccc2c(c1)OCO2)c1ccc2ccccc2c1 the T/C (dose: 100.0 mg/kg/injection, schedule: Q04DX002 (ip), vehicle: gum acacia) was 103 % of control, the T/C (dose: 200.0 mg/kg/injection, schedule: Q04DX002 (ip), vehicle: gum acacia) was 96 % of control and the T/C (dose: 400.0 mg/kg/injection, schedule: Q04DX002 (ip), vehicle: gum acacia) was 92 % of control.

In the case of Cc1cc(=O)oc2c1ccc1c(O)cccc12, the T/C [1] is reported as 103 % of control, the T/C [2] is reported as 97 % of control and the T/C [3] is reported as 94 % of control.

O=c1oc2ccccc2c(O)c1Cc1c(O)c2ccccc2oc1=O was tested, and the T/C (dose: 12.5 mg/kg/injection, schedule: Q01DX009 (ip), vehicle: Klucel (hydroxypropylcellulose) (HPC)) was 99 % of control, the T/C (dose: 25.0 mg/kg/injection, schedule: Q01DX009 (ip), vehicle: Klucel (hydroxypropylcellulose) (HPC)) was 86 % of control and the T/C (dose: 50.0 mg/kg/injection, schedule: Q01DX009 (ip), vehicle: Klucel (hydroxypropylcellulose) (HPC)) was 86 % of control and 92 % of control.

In the case of CC1(C)CN(Cc2ccc(Cl)cc2)C1=O, the T/C (dose: 44.0 mg/kg/injection, schedule: Q01DX001 (ip), vehicle: other) is reported as 97 % of control, the T/C (dose: 44.0 mg/kg/injection, schedule: Q01DX009 (ip), vehicle: saline with Tween-80) is reported as 90 % of control and the T/C (dose: 44.0 mg/kg/injection, schedule: Q04DX003 (ip), vehicle: other) is reported as 96 % of control. For the same compound, the T/C (dose: 50.0 mg/kg/injection, schedule: Q04DX002 (ip), vehicle: other) was 154 % of control, the T/C (dose: 66.0 mg/kg/injection, schedule: Q01DX001 (ip), vehicle: other) was 100 % of control and the T/C (dose: 66.0 mg/kg/injection, schedule: Q01DX009 (ip), vehicle: saline with Tween-80) was 89 % of control. The T/C (dose: 66.0 mg/kg/injection, schedule: Q04DX003 (ip), vehicle: other) was 101 % of control, the T/C [7] was 96 % of control and the T/C [6] was 91 % of control. For the same compound, the T/C (dose: 100.0 mg/kg/injection, schedule: Q04DX002 (ip), vehicle: other) was 92 % of control and 113 % of control, the T/C (dose: 100.0 mg/kg/injection, schedule: Q04DX003 (ip), vehicle: other) was 100 % of control and the T/C (dose: 150.0 mg/kg/injection, schedule: Q01DX001 (ip), vehicle: other) was 98 % of control. The T/C (dose: 150.0 mg/kg/injection, schedule: Q01DX009 (ip), vehicle: saline with Tween-80) was 92 % of control, the T/C (dose: 150.0 mg/kg/injection, schedule: Q04DX003 (ip), vehicle: other) was 103 % of control and the T/C (dose: 225.0 mg/kg/injection, schedule: Q01DX001 (ip), vehicle: other) was 100 % of control. The T/C (dose: 225.0 mg/kg/injection, schedule: Q01DX009 (ip), vehicle: saline with Tween-80) was 93 % of control, the T/C (dose: 225.0 mg/kg/injection, schedule: Q04DX003 (ip), vehicle: other) was 96 % of control and the T/C (dose: 400.0 mg/kg/injection, schedule: Q04DX002 (ip), vehicle: other) was 95 % of control and 103 % of control.

For C=CC(C)(C)c1c2c(c(O)c3c(=O)c4ccc(O)c(O)c4oc13)C=CC(C)(C)O2, the T/C [1] was 95 % of control, the T/C [2] was 92 % of control and the T/C [3] was 95 % of control.

For CO/C(=C(/C)C(=O)O)c1c(C)cc(C)c(Br)c1C, the T/C (dose: 75.0 mg/kg/injection, schedule: Q01DX009 (ip), vehicle: Klucel (hydroxypropylcellulose) (HPC)) was 98 % of control, the T/C (dose: 150.0 mg/kg/injection, schedule: Q01DX009 (ip), vehicle: Klucel (hydroxypropylcellulose) (HPC)) was 95 % of control and the T/C (dose: 300.0 mg/kg/injection, schedule: Q01DX009 (ip), vehicle: Klucel (hydroxypropylcellulose) (HPC)) was 109 % of control.
